Measurements: paper PMC5785503, “Development of novel fluorescent histamine H1-receptor antagonists to study ligand-binding kinetics in living cells” (Scientific Reports, 2018)

Key:
H1R = biological target: H1R; design: method as in PMID 22007643; conditions: parent compound at the H1R; cited from earlier work
H1-YFP = biological target: T1, H1-YFP (Homo sapiens, UniProt P35367); assay type: cell-based
T1 construct: expressed in transfected cells
Procedure: CHO H1R and CHO H1-YFP cells were grown to approximately 80% confluency on 8-well Labtek chambered coverglasses (Nunc Nalgene). […] Cells were then incubated with the required concentration of fluorescent ligand for 30 min prior to the collection of single equatorial confocal images. Images were obtained using a Zeiss LSM710 confocal microscope (Carl Zeiss GmbH, Jena, Germany) fitted with a 63× plan-Apochromat NA1.3 Ph3 oil-immersion lens within the School of Life Sciences Imaging Unit. […] For all experiments a pinhole of 1 Airy Unit was used and fixed laser power, gain and offset for the BY630 containing compounds were kept the same for samples within each experiment.

Nluc-H1R [1] = biological target: T2, Nluc-H1R (Homo sapiens, UniProt P35367); assay: NanoBRET saturation binding in whole HEK293T cells
T2 sequence (P35367 2-487 limits assumed): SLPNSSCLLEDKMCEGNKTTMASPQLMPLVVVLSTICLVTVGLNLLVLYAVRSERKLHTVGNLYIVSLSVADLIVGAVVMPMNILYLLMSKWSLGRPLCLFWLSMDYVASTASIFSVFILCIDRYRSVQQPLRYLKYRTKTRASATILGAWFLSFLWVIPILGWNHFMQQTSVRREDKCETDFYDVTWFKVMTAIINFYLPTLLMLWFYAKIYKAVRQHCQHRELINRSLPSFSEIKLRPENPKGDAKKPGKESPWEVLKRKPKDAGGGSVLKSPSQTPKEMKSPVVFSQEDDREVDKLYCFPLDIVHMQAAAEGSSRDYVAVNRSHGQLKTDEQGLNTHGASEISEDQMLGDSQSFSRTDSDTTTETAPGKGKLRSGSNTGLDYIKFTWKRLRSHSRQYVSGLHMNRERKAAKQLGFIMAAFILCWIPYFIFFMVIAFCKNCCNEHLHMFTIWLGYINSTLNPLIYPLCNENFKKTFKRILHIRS
From the text: (§1) Immediately before experimentation, media was replaced with HBSS. […] […]. […] […].

human H1R = biological target: T3, human H1R (Homo sapiens, UniProt P35367); assay: [3H]mepyramine competition radioligand binding, HEK293T cell homogenates; conditions: read-out: Radioligand binding pKi (converted)
T3 construct: expressed in transfected cells
T3 sequence (P35367 whole entry): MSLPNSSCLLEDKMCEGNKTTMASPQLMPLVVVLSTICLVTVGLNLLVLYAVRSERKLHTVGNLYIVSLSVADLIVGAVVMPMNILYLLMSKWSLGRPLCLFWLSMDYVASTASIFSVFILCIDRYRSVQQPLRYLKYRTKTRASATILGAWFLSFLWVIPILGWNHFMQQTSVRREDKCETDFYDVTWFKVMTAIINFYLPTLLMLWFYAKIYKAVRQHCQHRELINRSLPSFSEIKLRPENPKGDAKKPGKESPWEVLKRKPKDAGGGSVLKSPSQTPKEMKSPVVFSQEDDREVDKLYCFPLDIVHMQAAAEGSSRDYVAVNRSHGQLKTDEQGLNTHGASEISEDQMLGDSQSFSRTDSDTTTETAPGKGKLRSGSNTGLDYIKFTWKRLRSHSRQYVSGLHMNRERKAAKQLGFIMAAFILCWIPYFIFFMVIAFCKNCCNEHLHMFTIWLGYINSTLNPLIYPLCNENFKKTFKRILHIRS
Procedure: […]. […] […]. All ligand binding was performed under gentle agitation. […] […].

Nluc-H1R [2] = biological target: T2, Nluc-H1R; assay: NanoBRET association kinetics in whole HEK293T cells; assay type: binding; conditions: for Kd: kinetic KD (koff/kon), whole HEK293T cells expressing Nluc-H1R, read-out: NanoBRET kinetics pKD (converted); for residence time: read-out: NanoBRET kinetics Tr (residence time); for koff: read-out: NanoBRET kinetics koff, whole HEK293T cells expressing Nluc-H1R, room temperature; for kon: read-out: NanoBRET kinetics kon, whole HEK293T cells expressing Nluc-H1R, room temperature, non-specific 10 μM doxepin
From the text: as §1

Nluc-H1R [3] = biological target: T2, Nluc-H1R; assay: NanoBRET association kinetics in HEK293T cell membranes; assay type: binding; conditions: kinetic, n = 4, read-out: pKD (calculated affinity) in membranes (converted)
Procedure: (§2) HEK293T cell stably expressing Nluc-H1 were grown to confluence in 500 cm^2 dishes. Normal growth media was replaced with ice-cold PBS and the cells were removed from the dish by scraping. The cells were then transferred to a 50 ml tube and centrifuged at 250 × g for 5 min. The supernatant was removed and the resulting pellets stored at −80 °C. Thawed pellets were resuspended in PBS and homogenized using an electrical homogenizer in 10 × 2 s bursts. Unbroken cells and nuclei were removed by centrifugation (1200 × g for 10 min) and the supernatant subsequently centrifuged at 41,415 g for 30 min. The membrane pellet was resuspended in PBS and homogenized by 20 passes of a glass-on-Teflon homogenizer. Protein concentration was determined using a BCA protein assay and membranes stored at −80 °C until required.
(§3) Immediately before experimentation, media was replaced with HBSS. […] For association kinetics experiments, the required concentration of fluorescent ligand in the presence or absence of 10 µM doxepin was added simultaneously. […] Non-specific binding was determined by the addition of […] 10 µM doxepin.
From association kinetic data, non-specific binding was determined for each concentration of fluorescent ligand at each time point by the addition of 10 µM doxepin and was subtracted from total binding.

Nluc-H1R [4] = biological target: T2, Nluc-H1R; assay: NanoBRET saturation binding in HEK293T cell membranes; conditions: value used in Cheng-Prusoff equation, read-out: KD of labelled ligand in membranes
Procedure: as §2, §3

[5] = HEK293T cells expressing Nluc-H1R, mean ± SEM, read-out: NanoBRET saturation pKD (converted)
[6] = NanoBRET, value used in Cheng-Prusoff equation, read-out: KD of labelled ligand in whole cells

T1 sequence (P35367 whole entry): as above

SMILES	pKi (H1R)	BODIPY630/650 fluorescence localisation (confocal) (H1-YFP)	fluorescence after pre-treatment with unlabelled mepyramine (specificity, confocal) (H1-YFP)	Kd (Nluc-H1R [1]; [5]) [µM]	Ki (human H1R) [µM]	Kd (Nluc-H1R [2]) [µM]	residence time (Nluc-H1R [2]) [min]	koff (Nluc-H1R [2]) [s⁻¹]	kon (Nluc-H1R [2]) [M⁻¹ s⁻¹]	Kd (Nluc-H1R [1]; [6]) [µM]	Kd (Nluc-H1R [3]) [µM]	Kd (Nluc-H1R [4]) [µM]
c1ccc(Cc2ccccc2OC2CCNCC2)cc1 [VUF13816, 4-(2-benzylphenoxy)piperidine]	8.20	–	–	–	–	–	–	–	–	–	–	–
COc1ccc(CN(CCN(C)CCC(=O)N[C@@H](C)C(=O)N[C@@H](C)C(=O)N[C@@H](CO)C(=O)NCCNC(=O)CCCCCNC(=O)COc2ccc(/C=C/C3=[N+]4C(=Cc5ccc(-c6cccs6)n5[B-]4(F)F)C=C3)cc2)c2ccccn2)cc1 [Compound 11, 6-(2-(4-((E)-2-(5,5-difluoro-7-(thiophen-2-yl)-5H-4λ^4,5λ^4-dipyrrolo[1,2-c:2′,1′-f][1,3,2]diazaborinin-3-yl)vinyl)phenoxy)acetamido)-N-((10 S,13 S,16 S)-16-(hydroxymethyl)-1-(4-methoxyphenyl)-5,10,13-trimethyl-8,11,14,17-tetraoxo-2-(pyridin-2-yl)-2,5,9,12,15,18-hexaazaicosan-20-yl)hexanamide]	–	clear membrane localisation	some residual cell surface fluorescence was observed	0.0631	0.01	0.00631	8.4 ± 0.91	0.0021	330000	–	–	–
C[C@H](NC(=O)CCN1CCC(Oc2ccccc2Cc2ccccc2)CC1)C(=O)N[C@@H](C)C(=O)N[C@@H](C)C(=O)NCCNC(=O)CCCCCNC(=O)COc1ccc(/C=C/C2=[N+]3C(=Cc4ccc(-c5cccs5)n4[B-]3(F)F)C=C2)cc1 [Compound 23, N-((5 S,8 S,11 S)-15-(4-(2-benzylphenoxy)piperidin-1-yl)-5,8,11-trimethyl-4,7,10,13-tetraoxo-3,6,9,12-tetraazapentadecyl)-6-(2-(4-((E)-2-(5,5-difluoro-7-(thiophen-2-yl)-5H-4λ^4,5λ^4-dipyrrolo[1,2-c:2′,1′-f][1,3,2]diazaborinin-3-yl)vinyl)phenoxy)acetamido)hexanamide]	–	–	Some residual binding was observed	0.00794	0.00398	0.0126	54.1 ± 5.33	0.000317	26700	0.0098	–	–
CC(O)[C@H](NC(=O)[C@H](C)NC(=O)[C@H](CC(N)=O)NC(=O)CCN1CCC(Oc2ccccc2Cc2ccccc2)CC1)C(=O)NCCNC(=O)CCCCCNC(=O)COc1ccc(/C=C/C2=[N+]3C(=Cc4ccc(-c5cccs5)n4[B-]3(F)F)C=C2)cc1 (stereo partly drawn) [Compound 25, (S)-2-(3-(4-(2-benzylphenoxy)piperidin-1-yl)propanamido)-N^1-((15 S,18 S)-1-(4-((E)-2-(5,5-difluoro-7-(thiophen-2-yl)-5H-4λ^4,5λ^4-dipyrrolo[1,2-c:2′,1’-f][1,3,2]diazaborinin-3-yl)vinyl)phenoxy)-15-((S)-1-hydroxyethyl)-2,9,14,17-tetraoxo-3,10,13,16-tetraazanonadecan-18-yl)succinamide]	–	–	–	0.0316	0.00631	0.01	39.5 ± 9.4	0.0005	43300	–	–	–
COc1ccc(CN(CCN(C)CCC(=O)NCCCC(=O)N[C@@H](C)C(=O)N[C@@H](C)C(=O)NCCNC(=O)CCCCCNC(=O)COc2ccc(/C=C/C3=[N+]4C(=Cc5ccc(-c6cccs6)n5[B-]4(F)F)C=C3)cc2)c2ccccn2)cc1 [Compound 12, 5,5-difluoro-3-((E)-4-(((15 R,18 R)-1-(4-methoxyphenyl)-5,15,18-trimethyl-8,13,16,19,24,31-hexaoxo-2-(pyridin-2-yl)-2,5,9,14,17,20,23,30-octaazadotriacontan-32-yl)oxy)styryl)-7-(thiophen-2-yl)-5H-4λ^4-dipyrrolo[1,2-c:2′,1′-f][1,3,2]diazaborinin-5-uide]	–	clear membrane localisation	very little fluorescence was observed	0.0501	0.02	0.0398	7.68 ± 0.58	0.00223	55000	–	–	–
NC(=O)C[C@H](NC(=O)CNC(=O)CNC(=O)CCN1CCC(Oc2ccccc2Cc2ccccc2)CC1)C(=O)NCCNC(=O)CCCCCNC(=O)COc1ccc(/C=C/C2=[N+]3C(=Cc4ccc(-c5cccs5)n4[B-]3(F)F)C=C2)cc1 [Compound 24, (S,E)-2-(2-(2-(3-(4-(2-benzylphenoxy)piperidin-1-yl)propanamido)acetamido)acetamido)-N^1-(2-(6-(2-(4-(2-(5,5-difluoro-7-(thiophen-2-yl)-5H-4λ^4,5λ^4-dipyrrolo[1,2-c:2′,1′-f][1,3,2]diazaborinin-3-yl)vinyl)phenoxy)acetamido)hexanamido)ethyl)succinamide]	–	–	–	0.0251	0.00501	0.01	37.8 ± 3.44	0.00045	48300	–	–	–
COc1ccc(CN(CCN(C)CCC(=O)N[C@@H](C)C(=O)N[C@@H](C)C(=O)NCCNC(=O)CCCCCNC(=O)COc2ccc(/C=C/C3=[N+]4C(=Cc5ccc(-c6cccs6)n5[B-]4(F)F)C=C3)cc2)c2ccccn2)cc1 [Compound 10, 6-(2-(4-((E)-2-(5,5-difluoro-7-(thiophen-2-yl)-5H-4λ^4,5λ^4-dipyrrolo[1,2-c:2′,1′-f][1,3,2]diazaborinin-3-yl)vinyl)phenoxy)acetamido)-N-((10 S,13 S)-1-(4-methoxyphenyl)-5,10,13-trimethyl-8,11,14-trioxo-2-(pyridin-2-yl)-2,5,9,12,15-pentaazaheptadecan-17-yl)hexanamide]	–	clear membrane localisation	very little fluorescence was observed	0.00794	0.0251	0.00501	4.99 ± 0.78	–	–	0.0092	0.00355	0.0288
